For this experiment, the system named is CSPα^WT, CSPα^L115R and CSPα^L116Δ. The experiment can be described thus: Fe—S cluster disruption of purified recombinant CSPα oligomers (SDS-PAGE, immunoblotting). Format: biochemical. The settings on record: purified recombinant proteins; 1 mM, 2 h at room temperature; FIG. 2B. As to the method:
FIGS. 2A-2F show dissociation of CSPα ANCL mutant protein oligomers by acid treatment. […] Purified recombinant CSPα^WT, CSPα^L115R CSPα^L116Δ, and SSPα proteins were incubated with either 1 mM L-cysteine for 2 h at room temperature (+L-Cys) or 0.1 N HCl for 20 min at room temperature (+HCl). The proteins were separated by SDS-PAGE, and resultant gels were subjected to immunoblotting using anti-CSPα antibody. A representative immunoblot is shown. Key: Mono=monomer; Oligo=oligomers of higher mass than dimer. Mono=monomer; Oligo=oligomers; grey arrowheads=possible dimer and tetramer. […] The proteins were subjected to increasing trypsin concentrations (0, 0.01, 0.05, 0.1, and 1.0 mg/ml) for 20 min at 4° C., followed by immediate inhibition of trypsin with addition of phenylmethylsulfonyl fluoride (PMSF) to 1 mM. After proteolysis was stopped, CSPα oligomers were disrupted with 0.1 N HCl for 20 min at room temperature, followed by 10 min of boiling in Laemmli sample buffer. The resultant proteins were separated by SDS-PAGE, and subjected to immunoblotting using anti-CSPα antibody. […] The proteins were first incubated with 0.1 N HCl for 20 min at room temperature and then neutralized with 1 M sodium cacodylate to pH 7.0. Limited proteolysis was then performed using increasing trypsin concentrations (0, 0.01, 0.05, 0.1, and 1.0 mg/ml) for 20 min at 4° C. […]

Each structure is given as a SMILES string.

As to `N[C@@H](CS)C(=O)O` [L-cysteine], the “disassembly of oligomers of CSPα^WT, CSPα^L115R and CSPα^L116Δ” value was “no significant effect”.

For the origin of these results see patent publication US12083105B2, “Compositions and methods for treating adult-onset neuronal ceroid lipofuscinosis (Kufs disease)” (CORNELL UNIVERSITY, priority 2020, dated 2024).
